Data published in patent US4581354A, “3-arylcarbonyl- and 3-cycloalkylcarbonyl-1-aminoalkyl-1H-indoles, compositions and use” (Sterling Drug Inc., priority 1985, dated 1986).

system: acetylcholine-induced abdominal constriction; assay: animal or person; format: in vivo, mice; details: Mus musculus, iv, 10 mg./kg. i.v.; read-out: Ach percent inhibition
Excerpt: The test procedures used to determine the analgesic activities of the compounds have been described in detail in the prior art and are as follows: The acetylcholine-induced abdominal constriction test, which is a primary analgesic screening test designed to measure the ability of a test agent to suppress acetylcholine-induced abdominal constriction in mice, described by Collier et al., Brit. J. Pharmacol. Chemotherap. 32, 295 (1968); a modification of the anti-bradykinin test, which is also a primary analgesic screening procedure, described by Berkowitz et al., J. Pharmacol. Exptl. Therap. 177, 500-508 (1971), Blane et al., J. Pharm. Pharmacol. 19, 367-373 (1967), Botha et al., Eur. J. Pharmacol. 6, 312-321 (1969) and Deffenu et al., J. Pharm. Pharmacol. 18, 135 (1966); and the rat paw flexion test, described by Kuzuna et al., Chem. Pharm. Bull., 23, 1184-1191 (1975), Winter et al., J. Pharm. Exptl. Therap., 211, 678-685 (1979) and Capetola et al., J. Pharm. Exptl. Therap. 214, 16-23 (1980).
Unless noted otherwise, all data were obtained on oral administration and are expressed either as the ED50 or as the percent inhibition at a given dose level (thus 30/100 or 30% inhibition at […].)
In some instances, the compounds were retested two or more times, and ED50 values were calculated for each series of repeat tests. In such instances, each of the ED50 values so-obtained is given in a series of values, thus 6, 28, 30, 43 in the case of the species of Example 1AW in the acetylcholine-induced abdominal constriction test.

**Q.** Which inhibition in vivo at 10 mg/kg does the source give for `Cc1c(C(=O)c2cccc3ccccc23)c2ccccc2n1CCN1CCN(C)CC1` [Example 3J] here?
**A.** 30%

same assay, conditions: Mus musculus, iv; read-out: Ach ED50

**Q.** For `Cc1c(C(=O)c2cccc3ccccc23)c2ccccc2n1CCN1CCCC(O)C1` (centres unmarked) [Example 3H], which ED50 is on record?
**A.** 9.7 mg/kg

same assay, conditions: Mus musculus, po, 100 mg./kg. oral; read-out: Ach percent inhibition

**Q.** For `CCN(CC)CCCCn1c(C)c(C(=O)c2ccc(OC)cc2)c2ccccc21` [Example 3AD], which inhibition in vivo at 100 mg/kg is on record?
**A.** 100%

**Q.** `COc1ccc(C(=O)c2c(C)n(CCCN3CCS(=O)(=O)CC3)c3ccc(F)cc23)cc1` [Example 3AH] was tested. Which inhibition in vivo at 100 mg/kg did it give?
**A.** 30%

**Q.** With `Cc1c(C(=O)c2cccc3ccccc23)c2ccccc2n1CCN1CCNCC1` [Example 3I] as the molecule, how does the inhibition in vivo at 100 mg/kg read?
**A.** 30%

**Q.** With `Cc1c(C(=O)c2cccc3ccccc23)c2ccccc2n1CCN1CCOC(C)C1` (centres unmarked) [Example 3M] as the molecule, how does the inhibition in vivo at 100 mg/kg read?
**A.** 10%

**Q.** `COc1ccc(C(=O)c2c(C)n(CCN3CCCC(NC(C)=O)C3)c3ccccc23)cc1` (centres unmarked) [Example 3N, 1-[2-(3-acetylamino-1-piperidinyl)ethyl]-2-methyl-3-(4-methoxybenzoyl)-1H-indole] was tested. Which inhibition in vivo at 100 mg/kg did it give?
**A.** 40%

**Q.** `COc1ccc(C(=O)c2c(C)n(CCN3CCCCC3CC3CCCCC3)c3ccccc23)cc1` (centres unmarked) [Example 3Q] was tested. Which inhibition in vivo at 100 mg/kg did it give?
**A.** 40%

**Q.** With `COc1ccc(C(=O)c2c(C)n(CCN3CC(C)OC(C)C3)c3ccccc23)cc1` (centres unmarked) [Example 3R] as the molecule, how does the inhibition in vivo at 100 mg/kg read?
**A.** 40%

**Q.** For `COc1ccc(C(=O)c2c(C)n(CCN3CCN(C=O)CC3)c3ccccc23)cc1` [Example 3S, 1-[2-(4-formyl-1-piperazinyl)ethyl]-2-methyl-3-(4-methoxybenzoyl)-1H-indole], which inhibition in vivo at 100 mg/kg is on record?
**A.** 40%

**Q.** `COc1ccc(C(=O)c2c(C)n(CCN3CCSCC3)c3ccccc23)cc1` [Example 3U, 2-methyl-3-(4-methoxybenzoyl)-1-[2-(4-thiomorpholinyl)ethyl]-1H-indole] was tested. Which inhibition in vivo at 100 mg/kg did it give?
**A.** 30%

same assay, conditions: Mus musculus, po; read-out: Ach ED50

**Q.** With `COc1ccc(C(=O)c2c(C)n(CCCCN3CCCCC3)c3ccccc23)cc1` [Example 3AB] as the molecule, how does the ED50 read?
**A.** 25 mg/kg

**Q.** `COc1ccc(C(=O)c2c(C)n(CCCCN3CCCC3)c3ccccc23)cc1` [Example 3AC] was tested. Which ED50 did it give?
**A.** 21 mg/kg

**Q.** With `COc1ccc(C(=O)c2c(C)n(CCCN3CCSCC3)c3ccc(F)cc23)cc1.Cl` [Example 3AF, 5-fluoro-2-methyl-3-(4-methoxybenzoyl)-1-[3-(4-thiomorpholinyl)propyl]-1H-indole hydrochloride] as the molecule, how does the ED50 read?
**A.** 139 mg/kg

**Q.** With `CCNCCCn1c(C)c(C(=O)c2ccc(OC)cc2)c2cc(F)ccc21` [Example 3AG] as the molecule, how does the ED50 read?
**A.** 42 mg/kg

**Q.** With `COc1ccc(C(=O)c2c(C)n(CCCN(C)CCO)c3ccc(F)cc23)cc1` [Example 3AJ] as the molecule, how does the ED50 read?
**A.** 35 mg/kg

**Q.** For `COc1ccc(C(=O)c2c(C)n(CCN3CCN(C)CC3)c3ccccc23)cc1` [Example 3C], which ED50 is on record?
**A.** 53 mg/kg

**Q.** `CCNCCn1c(C)c(C(=O)c2ccc(OC)cc2)c2ccccc21` [Example 3K] was tested. Which ED50 did it give?
**A.** 45.7 mg/kg

**Q.** `COCCNCCn1c(C)c(C(=O)c2ccc(OC)cc2)c2ccccc21` [Example 3L] was tested. Which ED50 did it give?
**A.** 44 mg/kg

**Q.** With `COc1ccc(C(=O)c2c(C)n(CCN3CCOC(C)C3)c3ccccc23)cc1` (centres unmarked) [Example 3P] as the molecule, how does the ED50 read?
**A.** 71 mg/kg

**Q.** For `COc1ccc(C(=O)c2c(C)n(CCN3CCCNCC3)c3ccccc23)cc1` [Example 3T], which ED50 is on record?
**A.** 53 mg/kg

**Q.** With `COc1ccc(C(=O)c2c(C)n(CCN3CCS(=O)(=O)CC3)c3ccccc23)cc1` [Example 3V] as the molecule, how does the ED50 read?
**A.** 254 mg/kg

**Q.** `COc1ccc(C(=O)c2c(C)n(CCCN3CCCC(O)C3)c3ccc(F)cc23)cc1` (centres unmarked) [Example 3W] was tested. Which ED50 did it give?
**A.** 49 mg/kg

**Q.** `COc1ccc(C(=O)c2c(C)n(CCCN3CCOC(C)C3)c3ccc(F)cc23)cc1` (centres unmarked) [Example 3Y] was tested. Which ED50 did it give?
**A.** 69 mg/kg

**Q.** Which ED50 does the source give for `COc1ccc2c(C(=O)c3ccc(N)cc3)c(C)n(CCN3CCOCC3)c2c1` [Example 4C, 2-methyl-3-(4-aminobenzoyl)-6-methoxy-1-[2-(4-morpholinyl)ethyl]-1H-indole] here?
**A.** 37 mg/kg

**Q.** `Cc1c(C(=O)c2ccc(N)cc2)c2ccccc2n1C(C)CN1CCOCC1` (centres unmarked) [Example 4D, 2-methyl-3-(4-aminobenzoyl)-1-[1-methyl-2-(4-morpholinyl)ethyl]-1H-indole] was tested. Which ED50 did it give?
**A.** 24 mg/kg
